Patent publication US9045450B2, “Method for chemical synthesis of antrocin and use thereof for suppressing non-small cell lung cancer” (KAIYEW INVESTMENT CORP., priority 2011, dated 2015)
Entries after “also recorded” stand apart in the source; their conditions may differ.

What was measured:
H1975 cells [1] = experiment: Cytotoxicity / cell proliferation, sulforhodamine B; type: cell-based, human; settings: H1975, antrocin 0.5-10 μM, two days, FIG. 4 (A)
Method: (§1) Human lung cancer cell lines (CL1-0, CL1-5, H1975, H441, PC9, A549) and human bronchial epithelia cell lines (BEAS-2B) were obtained from the Institute of Clinical Medicine, Taipei Medical University. The cells were grown and maintained in DMEM medium (Dulbecco's Modified Eagle's Medium and RPMI basal medium supplemented with 10% fetal bovine serum, 2 mM glutamine, […] streptomycin, and 100 U/ml penicillin in a wet incubator at 5% CO2.
(§2) Lung cancer cell were grown in a medium supplemented with 10% fetal bovine serum until the cells grew to approximately 80% of their full-blown size. Old culture solution was drained, the lung cancer cells were washed with PBS buffer solution (phosphate buffered saline), and 10 ml of serum-free culture medium was added. Different pharmaceutical drugs were added according to experimental purposes, all reactions were carried out in an incubator at 37° C.
(§3) Human lung cancer cells (CL1-0, CL1-5, H1975, H441, PC9, A549) and human bronchial epithelial cells (BEAS-2B) were seeded in 96-well culture plates (2000 cells/well) and incubated overnight in 100 μl complete DMEM. […] After two days, total number of human cells in each well was measured using sulforhodamine B (a fluorescent protein dye). […] The optical density was measured at 562 nm by a microtiter plate detector. […]

H441 cells = experiment: as above; type: cell-based, human; settings: H441, antrocin 0.5-10 μM, two days, FIG. 4 (A)
Method: as §1, §2, §3

H1975 cells [2] = experiment: Apoptosis, flow cytometry; type: cell-based, human; settings: H1975, antrocin treatment for 48 hours, FIG. 4 (B)
caspase-3 enzyme = experiment: Protein expression in H441 cells (FIG. 6); type: cell-based, human; settings: increasing dose
Source text: (§4) The inhibitory effect of antrocin on protein expression is presented as relative multiple.Beta-actin protein was the internal reference (loading control).

XIAP = experiment: Protein expression in H441 cells (FIG. 6); type: cell-based, human
Source text: as §4

cyclin D1 = experiment: Protein expression in H441 cells (FIG. 6); type: cell-based, human
Source text: as §4

[3] = tested on: normal human bronchial epithelial cells (BEAS-2B); experiment: Cytotoxicity, sulforhodamine B; type: cell-based; settings: antrocin 0.5-10 μM, two days, FIG. 4 (A)
Method: as §1
Human lung cancer cells (CL1-0, CL1-5, H1975, H441, PC9, A549) and human bronchial epithelial cells (BEAS-2B) were seeded in 96-well culture plates (2000 cells/well) and incubated overnight in 100 μl complete DMEM. Equal amount of complete DMEM sample containing 50 μl antrocin (0.5-10 μM) was placed in other wells of the culture plates. Further, 100 μl complete DMEM sample was also placed in wells as the control group. After two days, total number of human cells in each well was measured using sulforhodamine B (a fluorescent protein dye). Briefly, human cells were fixed in 10% trichloroacetic acid and stained with 0.4% sulforhodamine B. After being stained for 20 minutes, the human cells were washed with 1% acetic acid, and then sulforhodamine B, which was bound with human cells, was dissolved in 10 mM tris base. The optical density was measured at 562 nm by a microtiter plate detector. […]

breast cancer cells = settings: natural antrocin isolated from Antrodia; Rao et al., 2011; cited from earlier work
[4] = Body weight of tumor-bearing mice; type: in vivo, non-obese diabetic/severe combined immunodeficient mice; settings: 5 and 10 mg/kg/day intraperitoneal, four weeks, FIG. 7 (C)
Method: […] cells (6×10^5/100 μl PBS) were intravenously injected into immunodeficient mice via lateral tail vein. Antrocin treatments (low dose of 5 mg/kg/day and high dose of 10 mg/kg/day) were performed by daily intraperitoneal injection into tumor-bearing mice over a period of four weeks. Weekly observations were performed and data were recorded for (A) VIS images, (B) Tumor growth, (C) Body weights, and (D) Survival curves.
The present invention further investigated anticancer effect of antrocin in vivo. H441-L2G cells expressing firefly luciferase and green fluorescent protein were implanted by intravenous injections via the lateral tail vein (6×10^5/100 μl PBS) into non-obese diabetic/severe combined immunodeficient mice. Daily intraperitoneal injections of antrocin (two groups of mice, a low dose of 5 mg/kg/day and a high dose of 10 mg/kg/day) were given over a period of four weeks to observe tumor growth.
The present invention further investigated the anticancer effect of antrocin in vivo. H441-L2G cells expressing firefly luciferase and green fluorescent protein were implanted by intravenous injections via the lateral tail vein (6×10^5/100 μl PBS) into non-obese diabetic/severe combined immunodeficiency mice. […]

[5] = tested on: human non-small cell lung cancer cells (CL1-0, CL1-5, H1975, H441, PC9, A549); experiment: Cytotoxicity / cell proliferation, sulforhodamine B; type: cell-based; settings: NSCLC cell lines, antrocin 0.5-10 μM, two days, FIG. 4 (A)
Method: as §1, §2, §3

C=C1CC[C@H]2C(C)(C)CCC[C@@]23C(=O)OC[C@@H]13 [antrocin]
inhibition of cancer cell growth/proliferation (H1975 cells [1]): most robust inhibitions
inhibition of cancer cell growth/proliferation (H441 cells): most robust inhibitions
number of cells in early and late (final) stage of apoptosis (H1975 cells [2]): increase in the number of cells in early and late stage of apoptosis in a dose-dependent fashion; also recorded: increased significantly in a dose-dependent fashion
activation of caspase enzyme 3 (caspase-3 enzyme): markedly activated
inhibition of XIAP protein expression (XIAP): dose-dependently inhibited
inhibition of cyclin D1 protein expression (cyclin D1): dose-dependently inhibited
cytotoxicity against normal human bronchial epithelial cells [3]: no cytotoxicity
inhibition of cell proliferation in breast cancer cells (breast cancer cells): inhibited the cell proliferation; also recorded: effectively inhibited cell proliferation
body weight, treated group vs control group [4]: no significant difference
inhibitory effect on cancer cell proliferation [5]: significant inhibitory effect
